Source: ChEMBL document CHEMBL5214885, “PROTACs to address the challenges facing small molecule inhibitors” (Eur J Med Chem, 2021)
pEC50, pKd: −log10 of the molar value.

Legend:
[1] = molecular target: Microtubule-associated protein tau (Homo sapiens, UniProt P10636); assay: Binding affinity to N-terminal His-tagged recombinant human Tau40 expressed in Escherichia coli Rosetta (DE3) assessed as dissociation constant incubated for 0.5 hrs by fluorescence polarization assay
[2] = molecular target: Protein cereblon/Bcl-2-like protein 1 (Homo sapiens, UniProt Q07817+Q96SW2); assay: PROTAC activity at CRBN/BCL-XL in human MOLT-4 cells assessed as induction of BCL-XL degradation incubated for 16 hrs by Western blot analysis; assay type: cell-based
Chain of Protein cereblon/Bcl-2-like protein 1 (Q07817 whole entry): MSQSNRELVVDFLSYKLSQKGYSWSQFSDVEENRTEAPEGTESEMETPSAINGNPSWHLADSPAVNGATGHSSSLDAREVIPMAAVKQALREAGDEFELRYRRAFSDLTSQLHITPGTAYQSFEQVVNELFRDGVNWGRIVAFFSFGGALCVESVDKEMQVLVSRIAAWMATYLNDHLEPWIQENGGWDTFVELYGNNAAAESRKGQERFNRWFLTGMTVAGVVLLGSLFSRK
Chain of Protein cereblon/Bcl-2-like protein 1 (Q96SW2 whole entry): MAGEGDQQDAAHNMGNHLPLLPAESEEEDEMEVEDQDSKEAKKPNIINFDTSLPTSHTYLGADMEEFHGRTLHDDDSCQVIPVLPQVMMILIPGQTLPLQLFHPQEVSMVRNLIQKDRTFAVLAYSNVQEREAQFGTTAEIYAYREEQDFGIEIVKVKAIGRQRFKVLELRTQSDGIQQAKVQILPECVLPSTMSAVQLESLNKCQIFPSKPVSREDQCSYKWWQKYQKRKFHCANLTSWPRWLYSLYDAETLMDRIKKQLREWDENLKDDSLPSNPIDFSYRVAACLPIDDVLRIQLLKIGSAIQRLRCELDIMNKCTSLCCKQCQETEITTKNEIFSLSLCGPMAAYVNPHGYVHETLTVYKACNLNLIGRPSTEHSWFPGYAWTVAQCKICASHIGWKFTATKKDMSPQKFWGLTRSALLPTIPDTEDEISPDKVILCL

Chain of Microtubule-associated protein tau (P10636 whole entry): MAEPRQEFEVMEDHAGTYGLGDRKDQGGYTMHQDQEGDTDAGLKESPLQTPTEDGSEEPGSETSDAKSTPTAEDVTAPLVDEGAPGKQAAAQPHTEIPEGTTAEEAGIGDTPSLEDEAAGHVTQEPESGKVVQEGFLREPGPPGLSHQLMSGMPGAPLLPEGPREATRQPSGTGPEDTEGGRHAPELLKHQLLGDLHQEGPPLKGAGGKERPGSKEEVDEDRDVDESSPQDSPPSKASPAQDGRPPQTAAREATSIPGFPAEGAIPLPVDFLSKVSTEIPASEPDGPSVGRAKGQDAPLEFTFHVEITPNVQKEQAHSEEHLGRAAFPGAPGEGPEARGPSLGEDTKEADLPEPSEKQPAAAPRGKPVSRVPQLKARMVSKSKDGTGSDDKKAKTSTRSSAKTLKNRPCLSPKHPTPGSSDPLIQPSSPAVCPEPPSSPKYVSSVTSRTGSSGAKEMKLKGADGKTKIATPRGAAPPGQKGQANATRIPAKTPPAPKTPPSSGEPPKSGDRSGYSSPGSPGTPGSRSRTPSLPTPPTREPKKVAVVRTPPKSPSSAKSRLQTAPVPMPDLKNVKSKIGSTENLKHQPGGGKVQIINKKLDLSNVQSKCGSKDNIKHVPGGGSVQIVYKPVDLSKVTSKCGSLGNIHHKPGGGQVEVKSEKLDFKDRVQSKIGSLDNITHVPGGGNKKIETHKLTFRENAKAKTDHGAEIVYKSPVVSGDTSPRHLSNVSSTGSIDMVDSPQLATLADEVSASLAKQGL

Row | pKd [1] | pEC50 [2] | SMILES
1 | 6.40 | – | CC[C@H](C)[C@H](NC(=O)[C@H](Cc1ccc(O)cc1)NC(=O)[C@@H]1CCCN1C(=O)[C@H](C)NC(=O)[C@H](CC(C)C)NC(=O)[C@H](C)NC(=O)[C@H](CO)NC(=O)CNC(=O)[C@H](CO)NC(=O)CNC(=O)CNC(=O)[C@H](CCC(N)=O)NC(=O)[C@H](CCC(=O)O)NC(=O)[C@H](CC(=O)O)NC(=O)[C@H](C)NC(=O)[C@@H](NC(=O)[C@H](C)NC(=O)[C@H](CC(=O)O)NC(=O)[C@H](CCC(N)=O)NC(=O)[C@H](Cc1ccc(O)cc1)NC(=O)[C@H](CCC(N)=O)NC(=O)[C@H](CCC(N)=O)NC(=O)[C@@H](N)Cc1ccc(O)cc1)[C@@H](C)O)C(=O)N1CCC[C@H]1C(=O)N[C@H](CCCNC(=N)N)C(=O)N[C@H](CCCNC(=N)N)C(=O)N[C@H](CCCNC(=N)N)C(=O)N[C@H](CCCNC(=N)N)C(=O)N[C@H](CCCNC(=N)N)C(=O)N[C@H](CCCNC(=N)N)C(=O)N[C@H](CCCNC(=N)N)C(=O)N[C@H](CCCNC(=N)N)C(=O)O
2 | – | 7.30 | O=C1CCC(N2C(=O)c3cccc(NCCOCCOCc4cn(CCCC(=O)N5CCN(CC#Cc6ccc(OCCCc7sc(N8CCc9cccc(C(=O)Nc%10nc%11ccccc%11s%10)c9C8)nc7C(=O)O)c(F)c6)CC5)nn4)c3C2=O)C(=O)N1 (configuration not stated)
